Marks after values point to notes of the source that are not given here.
Assay: Antioxidant activity, DPPH test
Format: biochemical
Details: second SC50 column; control; in brackets tolerated range 95%
Protocol: The antioxidant activity of the dry extract A, obtained as above illustrated in Example 1, of Fadogia ancylantha was determined using the 2,2 diphenyl-1-picrilhydrazilic stable radical (DPPH°) and α-tocopherol as a control, according to the protocol disclosed by Aquino R. et al. in "Phenolic constituents and antioxidant activity of an extract of Anthurium versicolor leaves", J. of Natural products 64, 1019-1023.
The decrease of absorbance measured according to the above protocol is directly correlated with the free-radical scavenger ability of the antioxidant under test.
The DPPH° percentage remaining at the steady state (%DPPH°RIM) is calculated by applying the following formula %DPPH°RIM = (DPPH)° × T1 /(DPPH°) × To × 100 [formula] where T1 is the time to reach the steady state.
The amount of the antioxidant needed to reduce the radical initial concentration to a half (SC50, expressed as µg of the extract/ml) was calculated from the percentage of DPPH°RIM with respect to the antioxidant concentrations used.
All tests were carried out in triplicate and repeated for three times.

In the case of `Cc1c(C)c2c(c(C)c1O)CC[C@@](C)(CCC[C@H](C)CCC[C@H](C)CCCC(C)C)O2` [α-tocopherol], the “DPPH test SC50” value is reported as 10.1 (8.8-11.4)^c µg/ml of phenols.

From patent EP1818060A1, “Cosmetic composition comprising Fadogia ancylantha extracts” (ARTSANA S.p.A., priority 2005, dated 2007)
